Results: ChEMBL document CHEMBL1124124, “Synthesis and interaction with uridine phosphorylase of 5'-deoxy-4',5-difluorouridine, a new prodrug of 5-fluorouracil” (J Med Chem, 1988)

Tested on: Uridine phosphorylase (Mus musculus)
Experiment: Relative Vmax for interaction with Urd phosphorylase

Relative Vmax: 5
SMILES: C[C@@]1(F)OC(n2cc(F)c(=O)[nH]c2=O)[C@H](O)[C@@H]1O (stereo partly specified)
